Columns and labels:
Experiment in all cases: relative viability (nuclei count vs DMSO), 5 days (fraction); higher = more cells survive
NCI-H1355 = tested on: NCI-H1355
Summary of the method: (§1)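 Relative viability divides the nuclei count in treated wells by that in vehicle wells. Lung cancer cell lines were seeded in 1536-well plates, dosed by pin tool the next day, and fixed and stained after 5 days in one step with final 0.05% Triton X-100, 1% formaldehyde and 1 ug/ml Hoechst. Dosing was a single drug or a fixed anchor-drug dose plus five library-drug doses (not always all listed) in √10 steps, and values are medians of duplicate plates imaged at 4×.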

NCI-H1792 = tested on: NCI-H1792
Summary of the method: as §1

NCI-H1563 = tested on: NCI-H1563
Summary of the method: as §1

SK-MES-1 = tested on: SK-MES-1
Summary of the method: as §1

RERF-LC-KJ = tested on: RERF-LC-KJ
Summary of the method: as §1

NCI-H1915 = tested on: NCI-H1915
Summary of the method: as §1

SW 900 = tested on: SW 900
Summary of the method: as §1

NCI-H727 = tested on: NCI-H727
Summary of the method: as §1

NCI-H520 = tested on: NCI-H520
Summary of the method: as §1

NCI-H661 = tested on: NCI-H661
Summary of the method: as §1

NCI-H650 = tested on: NCI-H650
Summary of the method: as §1

NCI-H522 = tested on: NCI-H522
Summary of the method: as §1

LXF-289 = tested on: LXF-289
Summary of the method: as §1

NCI-H1755 = tested on: NCI-H1755
Summary of the method: as §1

NCI-H322M = tested on: NCI-H322M
Summary of the method: as §1

NCI-H2347 = tested on: NCI-H2347
Summary of the method: as §1

NCI-H460 = tested on: NCI-H460
Summary of the method: as §1

NCI-H441 = tested on: NCI-H441
Summary of the method: as §1

NCI-H596 = tested on: NCI-H596
Summary of the method: as §1

NCI-H1651 = tested on: NCI-H1651
Summary of the method: as §1

PC-14 = tested on: PC-14
Summary of the method: as §1

NCI-H2170 = tested on: NCI-H2170
Summary of the method: as §1

NCI-H3122 = tested on: NCI-H3122
Summary of the method: as §1

LCLC-103H = tested on: LCLC-103H
Summary of the method: as §1

SMILES: CC(C)Oc1cc(Nc2nc(N[C@@H](C)c3ccc(F)cn3)ncc2Cl)n[nH]1 [AZ23] + COc1cccc2cc(-c3nc([C@H]4CC[C@H](C(=O)O)CC4)n4ncnc(N)c34)[nH]c12 [OSI-027] (partner 0.5 µM)
- relative viability (NCI-H1355; first compound 0.01 µM): 0.401
- relative viability (NCI-H1355; first compound 0.03162 µM): 0.421
- relative viability (NCI-H1355; first compound 0.3162 µM): 0.361
- relative viability (NCI-H1792; first compound 0.01 µM): 0.752
- relative viability (NCI-H1792; first compound 0.03162 µM): 0.782
- relative viability (NCI-H1792; first compound 0.3162 µM): 0.841
- relative viability (NCI-H1563; first compound 0.01 µM): 0.768
- relative viability (NCI-H1563; first compound 0.03162 µM): 0.775
- relative viability (NCI-H1563; first compound 0.3162 µM): 0.775
- relative viability (SK-MES-1; first compound 0.03162 µM): 0.711
- relative viability (SK-MES-1; first compound 0.3162 µM): 0.745
- relative viability (RERF-LC-KJ; first compound 0.01 µM): 0.592
- relative viability (RERF-LC-KJ; first compound 0.03162 µM): 0.623
- relative viability (RERF-LC-KJ; first compound 0.3162 µM): 0.616
- relative viability (NCI-H1915; first compound 0.01 µM): 0.664
- relative viability (NCI-H1915; first compound 0.03162 µM): 0.635
- relative viability (NCI-H1915; first compound 0.3162 µM): 0.65
- relative viability (SW 900; first compound 0.01 µM): 0.512
- relative viability (SW 900; first compound 0.03162 µM): 0.663
- relative viability (SW 900; first compound 0.3162 µM): 0.579
- relative viability (NCI-H727; first compound 0.01 µM): 0.496
- relative viability (NCI-H727; first compound 0.03162 µM): 0.558
- relative viability (NCI-H727; first compound 0.3162 µM): 0.605
- relative viability (NCI-H520; first compound 0.01 µM): 0.276
- relative viability (NCI-H520; first compound 0.03162 µM): 0.281
- relative viability (NCI-H520; first compound 0.3162 µM): 0.278
- relative viability (NCI-H661; first compound 0.01 µM): 0.666
- relative viability (NCI-H661; first compound 0.03162 µM): 0.766
- relative viability (NCI-H661; first compound 0.3162 µM): 0.755
- relative viability (NCI-H650; first compound 0.01 µM): 0.463
- relative viability (NCI-H650; first compound 0.03162 µM): 0.564
- relative viability (NCI-H650; first compound 0.3162 µM): 0.579
- relative viability (NCI-H522; first compound 0.01 µM): 0.639
- relative viability (NCI-H522; first compound 0.03162 µM): 0.711
- relative viability (NCI-H522; first compound 0.3162 µM): 0.563
- relative viability (LXF-289; first compound 0.01 µM): 0.862
- relative viability (LXF-289; first compound 0.03162 µM): 0.857
- relative viability (LXF-289; first compound 0.3162 µM): 0.96
- relative viability (NCI-H1755; first compound 0.01 µM): 0.639
- relative viability (NCI-H1755; first compound 0.03162 µM): 0.809
- relative viability (NCI-H1755; first compound 0.3162 µM): 0.771
- relative viability (NCI-H322M; first compound 0.03162 µM): 0.594
- relative viability (NCI-H322M; first compound 0.3162 µM): 0.521
- relative viability (NCI-H2347; first compound 0.01 µM): 0.298
- relative viability (NCI-H2347; first compound 0.03162 µM): 0.262
- relative viability (NCI-H2347; first compound 0.3162 µM): 0.389
- relative viability (NCI-H460; first compound 0.01 µM): 0.382
- relative viability (NCI-H460; first compound 0.03162 µM): 0.657
- relative viability (NCI-H460; first compound 0.3162 µM): 0.885
- relative viability (NCI-H441; first compound 0.01 µM): 0.707
- relative viability (NCI-H441; first compound 0.03162 µM): 0.729
- relative viability (NCI-H441; first compound 0.3162 µM): 0.566
- relative viability (NCI-H596; first compound 0.01 µM): 0.711
- relative viability (NCI-H596; first compound 0.03162 µM): 0.834
- relative viability (NCI-H596; first compound 0.3162 µM): 0.671
- relative viability (NCI-H1651; first compound 0.03162 µM): 0.77
- relative viability (NCI-H1651; first compound 0.3162 µM): 0.881
- relative viability (PC-14; first compound 0.03162 µM): 1.01
- relative viability (PC-14; first compound 0.3162 µM): 1.24
- relative viability (NCI-H2170; first compound 0.01 µM): 0.664
- relative viability (NCI-H2170; first compound 0.03162 µM): 0.722
- relative viability (NCI-H2170; first compound 0.3162 µM): 0.726
- relative viability (NCI-H3122; first compound 0.01 µM): 1.12
- relative viability (NCI-H3122; first compound 0.03162 µM): 1.12
- relative viability (NCI-H3122; first compound 0.3162 µM): 1.12
- relative viability (LCLC-103H; first compound 0.01 µM): 0.401
- relative viability (LCLC-103H; first compound 0.03162 µM): 0.505
- relative viability (LCLC-103H; first compound 0.3162 µM): 0.535
